Experimental data published in patent US20180228799A1, “Treatment for Neurological and Mental Disorders” (PSYCHOGENICS, INC., priority 2008, published 2018).

System: rats
Assay: Radial arm maze, scopolamine-induced working memory deficit
Type: in vivo
Details: scopolamine 0.5 mg/kg IP, FIG. 2
Procedure: Several mazes, such as the radial arm maze (RAM) have been adapted to assess working memory in rodents. The RAM consists of eight long runways radiating out in a circle from a central compartment. In the RAM rats learn to retrieve food rewards from all or a sub-set of the arms. Working memory is assessed by measuring entries into previously baited arms within a given trial. […] Hippocampal lesions produce deficits both in adults and in the neonatal hippocampal lesion model of schizophrenia.
For training, food deprived rats were placed in an enclosed cylinder in the center of the maze for 20 s, prior to being allowed to explore the maze by removing the cylinder. Each radial arm is baited with a food reward. Animals were given a maximum of 5 minutes to retrieve all food rewards. This training continued once daily for three weeks until animals met the performance criteria for successful acquisition of the task.
Four parameters were recorded to assess the performance of the rat: (1) the number of errors, which is defined as entering an arm that had already been entered, (2) the number of consecutive entries into un-visited arms before the first error occurred (entries to repeat), (3) latency to complete the task, and (4) the total number of arm entries before all food in the eight arms is collected or the maximum session duration is reached. […]

Structure (SMILES): CN1[C@@H]2C[C@@H](OC(=O)[C@H](CO)c3ccccc3)C[C@H]1[C@@H]1O[C@@H]12 [scopolamine, reference compound]
- Entries to repeat in the radial arm maze compared to baseline: decreased entries to repeat
